The values that follow come from patent publication US11773062B2, “Deuterated compounds” (priority 2021, dated 2023).

For data set [1], the system named is mouse (male CD-1) hepatocytes. Nature of the data set: In vitro mouse hepatocytic intrinsic clearance. The settings on record: mouse CD-1 hepatocytes 0.367 million cells/mL, 5 μM (Table 8).
Data set [2] concerns human (mixed gender) hepatocytes. Nature of the data set: In vitro intrinsic clearance in human hepatocytes with and without MAO-A/B inhibitor combination (first experiment). The note with it: for % change in half-life, MAO inhibitors vs no inhibitors / % change in intrinsic clearance, MAO inhibitors vs no inhibitors: human hepatocytes (Table 5).
Description: Standard final incubation conditions are 1 μM compound in buffer containing nominally ˜0.5 million viable cells/mL, ˜0.9% (v/v) acetonitrile (MeCN) and ˜0.1% (v/v) DMSO (specific assay concentrations outlined above, section 2).
Samples are then centrifuged at 4° C.
The next data set deals with CYP3A5 (Homo sapiens, UniProt P20815). Nature of the data set: in vitro. The settings on record: human, recombinant enzyme, pH 7.4. The protocol:
(§1) Samples were taken at predetermined time points.
(§2) Samples were then centrifuged at −4° C.
(§3) Positive control markers are as specified in Table 11.

The next data set concerns the target CYP3A4 (Homo sapiens, UniProt P08684). Nature of the data set: in vitro. The note with it: human, recombinant enzyme, pH 7.4. The protocol:
as §1, §2, §3

Data set [3] in a line: Human liver mitochondrial fraction intrinsic clearance of SPL026, SPL028i, SPL028iii, SPL028viii. The class given is in vitro ADME. The note with it: for Intrinsic Clearance / half-life: 0.5 mg/mL human liver mitochondrial fraction (Table 10). The text has this:
(§4) Human Liver Mitochondrial (HLMt) fractions contain high quantities of MAO enzymes and therefore, provide a useful tool to measure the clearance of MAO substrates.

For the next data set, the target named is T1, CYP2C8 (Homo sapiens, UniProt P10632).
T1 sequence (P10632 1-490): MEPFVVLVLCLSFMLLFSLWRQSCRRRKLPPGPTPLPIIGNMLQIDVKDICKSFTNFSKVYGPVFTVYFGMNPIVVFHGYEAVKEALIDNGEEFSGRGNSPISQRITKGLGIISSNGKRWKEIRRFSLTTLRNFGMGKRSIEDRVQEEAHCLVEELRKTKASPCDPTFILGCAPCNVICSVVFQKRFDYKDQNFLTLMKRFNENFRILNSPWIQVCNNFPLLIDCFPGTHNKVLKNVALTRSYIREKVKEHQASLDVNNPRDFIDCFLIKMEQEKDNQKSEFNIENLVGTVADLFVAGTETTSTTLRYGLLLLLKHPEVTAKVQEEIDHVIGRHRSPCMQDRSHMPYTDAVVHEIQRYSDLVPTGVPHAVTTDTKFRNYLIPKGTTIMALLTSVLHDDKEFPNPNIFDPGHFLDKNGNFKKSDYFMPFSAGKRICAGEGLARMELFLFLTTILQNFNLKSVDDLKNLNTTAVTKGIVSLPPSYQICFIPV
Nature of the data set: in vitro. The note with it: human, recombinant enzyme, pH 7.4. As to the method: as §1, §2, §3

A short description of data set [4]: Human liver mitochondrial fraction intrinsic clearance of SPL026 with/without MAO-A and MAO-B inhibitors. The class given is in vitro ADME.
Text: as §4

A short description of data set [5]: In vitro mouse hepatocytic intrinsic clearance. The settings on record: male, CD-1, mouse, hepatocytes.
The next data set concerns the target CYP2C19 (Homo sapiens, UniProt P33261). Nature of the data set: in vitro. The settings on record: human, recombinant enzyme, pH 7.4. The protocol:
as §1, §2, §3

A further data set deals with CYP2C9 (Homo sapiens, UniProt P11712). Nature of the data set: in vitro. The note with it: human, recombinant enzyme, pH 7.4. The protocol:
as §1, §2, §3

Another data set has as its target T2, CYP1A2 (Homo sapiens, UniProt P05177).
T2 sequence (P05177 1-516): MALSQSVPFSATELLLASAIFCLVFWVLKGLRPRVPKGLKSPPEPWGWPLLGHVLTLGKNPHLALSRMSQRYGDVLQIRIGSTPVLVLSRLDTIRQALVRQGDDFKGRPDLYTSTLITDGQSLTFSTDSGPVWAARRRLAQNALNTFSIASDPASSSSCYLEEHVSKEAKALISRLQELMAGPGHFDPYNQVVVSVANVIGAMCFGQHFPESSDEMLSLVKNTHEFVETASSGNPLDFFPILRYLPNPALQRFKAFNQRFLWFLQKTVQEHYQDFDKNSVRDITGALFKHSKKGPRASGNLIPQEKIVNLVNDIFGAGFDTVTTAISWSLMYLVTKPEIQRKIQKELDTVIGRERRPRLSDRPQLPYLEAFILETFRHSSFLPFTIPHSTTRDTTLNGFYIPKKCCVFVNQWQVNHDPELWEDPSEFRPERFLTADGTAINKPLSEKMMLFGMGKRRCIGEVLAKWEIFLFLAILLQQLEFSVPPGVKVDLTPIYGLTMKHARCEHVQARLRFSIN
Nature of the data set: in vitro. The note with it: human, recombinant enzyme, pH 7.4. The protocol: as §1, §2, §3

[6] abbreviates: human hepatocytes, with 100 nM clorgyline + 100 nM deprenyl/selegiline (Table 3).
Where [7] appears, read: human hepatocytes, with MAO-A/B inhibitor combination (Table 5).
Where [8] appears, read: human hepatocytes, with MAO-A/B inhibitors (Table 4; unit given only in Table 5).
[9] abbreviates: human hepatocytes, without MAO-A/B inhibitor combination (Table 5).
[10] abbreviates: 0.5 mg/mL human liver mitochondrial fraction, DMSO Vehicle (no inhibitor).
Setting [11] is: human hepatocytes, without MAO inhibitors (Table 4; unit given only in Table 5).

One may read the half-life as the time in which the quantity being followed falls by half. For orientation: hepatocyte CLint means the capacity of the preparation to metabolise the compound, expressed as a volume cleared per time. A low value points to greater metabolic stability.

Chain of CYP2C9 (P11712 whole entry): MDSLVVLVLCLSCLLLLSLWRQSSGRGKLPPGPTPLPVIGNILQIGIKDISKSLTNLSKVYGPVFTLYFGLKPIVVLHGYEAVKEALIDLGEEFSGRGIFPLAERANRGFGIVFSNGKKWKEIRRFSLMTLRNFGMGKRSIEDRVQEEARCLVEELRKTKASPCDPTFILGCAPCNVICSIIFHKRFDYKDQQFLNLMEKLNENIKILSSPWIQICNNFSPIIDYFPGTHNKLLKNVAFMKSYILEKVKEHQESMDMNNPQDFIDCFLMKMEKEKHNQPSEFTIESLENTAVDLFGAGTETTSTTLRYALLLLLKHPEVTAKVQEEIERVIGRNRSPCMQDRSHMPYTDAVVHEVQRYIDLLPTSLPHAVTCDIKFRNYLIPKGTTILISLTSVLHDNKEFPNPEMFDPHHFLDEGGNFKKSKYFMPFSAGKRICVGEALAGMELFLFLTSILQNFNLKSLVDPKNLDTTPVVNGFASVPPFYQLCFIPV
Chain of CYP3A5 (P20815 whole entry): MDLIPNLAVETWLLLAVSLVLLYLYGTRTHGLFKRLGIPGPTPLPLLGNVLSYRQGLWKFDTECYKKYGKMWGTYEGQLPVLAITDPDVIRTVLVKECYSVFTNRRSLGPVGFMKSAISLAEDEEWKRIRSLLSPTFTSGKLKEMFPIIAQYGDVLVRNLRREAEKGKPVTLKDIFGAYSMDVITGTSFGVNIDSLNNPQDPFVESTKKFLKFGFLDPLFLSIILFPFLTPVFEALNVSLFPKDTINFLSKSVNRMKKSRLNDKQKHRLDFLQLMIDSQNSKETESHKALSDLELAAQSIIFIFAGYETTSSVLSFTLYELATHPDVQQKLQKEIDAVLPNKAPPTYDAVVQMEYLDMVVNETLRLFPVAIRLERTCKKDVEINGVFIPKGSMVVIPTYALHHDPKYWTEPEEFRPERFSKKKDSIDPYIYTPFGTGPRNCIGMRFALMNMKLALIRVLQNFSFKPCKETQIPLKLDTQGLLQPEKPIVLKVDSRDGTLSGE
Chain of CYP3A4 (P08684 whole entry): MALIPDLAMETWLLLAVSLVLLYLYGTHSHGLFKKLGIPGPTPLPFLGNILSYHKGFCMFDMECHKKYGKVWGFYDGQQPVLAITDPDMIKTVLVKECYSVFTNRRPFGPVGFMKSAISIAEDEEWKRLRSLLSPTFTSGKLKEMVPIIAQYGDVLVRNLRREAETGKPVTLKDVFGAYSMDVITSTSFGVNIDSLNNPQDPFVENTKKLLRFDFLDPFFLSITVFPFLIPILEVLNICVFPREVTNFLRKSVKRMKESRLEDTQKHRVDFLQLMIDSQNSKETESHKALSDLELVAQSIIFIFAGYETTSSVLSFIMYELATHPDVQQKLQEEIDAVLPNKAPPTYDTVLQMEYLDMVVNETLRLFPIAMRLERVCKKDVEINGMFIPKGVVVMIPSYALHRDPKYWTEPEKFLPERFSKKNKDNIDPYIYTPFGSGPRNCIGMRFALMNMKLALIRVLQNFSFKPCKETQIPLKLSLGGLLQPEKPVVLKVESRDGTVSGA
Chain of CYP2C19 (P33261 whole entry): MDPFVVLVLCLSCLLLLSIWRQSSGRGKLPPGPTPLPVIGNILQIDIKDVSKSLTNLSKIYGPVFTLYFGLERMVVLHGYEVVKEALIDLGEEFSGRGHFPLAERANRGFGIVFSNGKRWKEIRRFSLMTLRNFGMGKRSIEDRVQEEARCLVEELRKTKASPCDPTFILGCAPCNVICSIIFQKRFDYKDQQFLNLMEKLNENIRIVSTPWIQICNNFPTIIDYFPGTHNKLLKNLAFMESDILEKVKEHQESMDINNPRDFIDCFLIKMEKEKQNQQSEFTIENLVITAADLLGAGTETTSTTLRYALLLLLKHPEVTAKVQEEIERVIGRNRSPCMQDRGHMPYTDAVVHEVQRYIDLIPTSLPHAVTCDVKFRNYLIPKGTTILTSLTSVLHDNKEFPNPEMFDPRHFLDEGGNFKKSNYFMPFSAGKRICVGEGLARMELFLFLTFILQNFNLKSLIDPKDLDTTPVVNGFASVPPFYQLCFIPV

Consider `[2H]C([2H])(Cc1c[nH]c2ccccc12)N(C)C` [SPL028iv, α,α,-bis-deuterium-N,N-dimethyltryptamine], for which, in data set [1], the “w Half-life” value is given as 17.7 min and the “w Intrinsic clearance” value was 106.9 μL/min/million cells. The “change in intrinsic clearance with the inclusion of MAO inhibitors” value in [2] (human hepatocytes) was 49%. In data set [2], the “% change in half-life, MAO inhibitors vs no inhibitors” value came out at 31.74% and the “% change in intrinsic clearance, MAO inhibitors vs no inhibitors” value was −49.33%. In addition, in [2] (setting [6]), the “Intrinsic clearance, with inhibitors” value was found to be 7.46 μL/min/million cells. In addition, in [2] (setting [7]), the “Half-life, with inhibitors” value is listed as 171.17 min and the “Intrinsic clearance, with inhibitors” value worked out at 7.46 μL/min/million cells. Further, the “Half-life, with inhibitors” value in data set [2] (setting [8]) is 171.17 min. Also, the “Intrinsic clearance, without inhibitors” value in data set [2] (setting [9]) is on record as 11.14 μL/min/million cells.
For `Cc1ncc2n1-c1ccc(Cl)cc1C(c1ccccc1F)=NC2` [Midazolam, reference compound], on CYP3A5, the half-life was 11 min and the “intrinsic clearance, CYP isoform 3A5” value is listed as 623 μL/min/nmol CYP. Moreover, at CYP3A4, the half-life was found to be 5 min and the “intrinsic clearance, CYP isoform 3A4” value is reported as 1369 μL/min/nmol CYP.
As to `[2H]C([2H])([2H])N(C([2H])([2H])[2H])C([2H])([2H])Cc1c[nH]c2ccccc12` [SPL028viii, α,α,bis-deuterio-N,N-hexadeuterio-dimethyltryptamine], the “Intrinsic Clearance” value in data set [3] was 10.9 μL/min/mg protein.
In the case of `[2H]C([2H])(Cc1c[nH]c2ccccc12)N(C)C` [SPL028iii, α,α,-bis-deuterium-N,N-dimethyltryptamine], in data set [3], the “Intrinsic Clearance” value was 15.0 μL/min/mg protein and the half-life was determined as 31.1 min. For the same compound, in data set [1], the “w Half-life” value was determined as 17.9 min and the “w Intrinsic clearance” value was found to be 106.2 μL/min/million cells. For the same compound, in data set [2], the “% change in half-life, MAO inhibitors vs no inhibitors” value amounted to 25.93% and the “% change in intrinsic clearance, MAO inhibitors vs no inhibitors” value is listed as −35.65%. The “Intrinsic clearance, with inhibitors” value in data set [2] (setting [6]) is recorded as 6.90 μL/min/million cells. In [2] (setting [7]), the “Half-life, with inhibitors” value was found to be 189.6 min and the “Intrinsic clearance, with inhibitors” value is reported as 6.9 μL/min/million cells. Besides, the “Half-life, with inhibitors” value in [2] (setting [8]) is on record as 189.60 min. Besides, the “Intrinsic clearance, without inhibitors” value in data set [2] (setting [9]) turned out to be 9.36 μL/min/million cells.
As to `CC(C)(O)c1ccccc1CC[C@@H](SCC1(CC(=O)O)CC1)c1cccc(/C=C/c2ccc3ccc(Cl)cc3n2)c1` [Montelukast, reference compound], at CYP2C8, the half-life stood at 62 min and the “intrinsic clearance, CYP isoform 2C8” value was found to be 122 μL/min/nmol CYP.
For the compound `[2H]C([2H])(Cc1c[nH]c2ccccc12)N(C)C` [SPL028v, α,α,-bis-deuterium-N,N-dimethyltryptamine], in data set [1], the “w Half-life” value came out at 16.1 min and the “w Intrinsic clearance” value was found to be 117.7 μL/min/million cells. For the same compound, in data set [2], the “% change in half-life, MAO inhibitors vs no inhibitors” value is on record as 11.47% and the “% change in intrinsic clearance, MAO inhibitors vs no inhibitors” value is −15.56%. Also, the “Intrinsic clearance, with inhibitors” value in data set [2] (setting [6]) was 9.51 μL/min/million cells. The “Intrinsic clearance, with inhibitors” value in [2] (setting [7]) was 9.51 μL/min/million cells. Also, the “Intrinsic clearance, without inhibitors” value in data set [2] (setting [9]) is listed as 10.99 μL/min/million cells.
Turning to `NCc1ccccc1` [Benzylamine, reference compound], in data set [4] (setting [10]), the half-life is reported as 30.4 min. In data set [4] (human liver mitochondrial fraction, Deprenyl (MAO-B inhibitor) 100 nM), this compound came in with a half-life of more than 420.2 min. Moreover, in data set [3], the “Intrinsic Clearance” value was 60.0 μL/min/mg protein and the half-life was 23.2 min. In addition, the “fold increase in intrinsic clearance, human liver mitochondria compared to hepatocyte fraction” value in data set [3] (positive controls) is given as approximately 3.6 fold. In data set [5], this compound displayed a half-life at 5 μM of 14.3 min and a hepatocyte CLint at 5 μM of 134 µL/min/1e6 cells. For the same compound, in data set [2], the “% change in half-life, MAO inhibitors vs no inhibitors” value was more than 83.41% and the “% change in intrinsic clearance, MAO inhibitors vs no inhibitors” value is less than −450%. Moreover, the “Intrinsic clearance, with inhibitors” value in data set [2] (setting [6]) is given as less than 3.0 μL/min/million cells. For the same compound, in [2] (setting [7]), the “Half-life, with inhibitors” value is on record as 460 min and the “Intrinsic clearance, with inhibitors” value is recorded as less than 3.0 μL/min/million cells. For the same compound, the “Half-life, with inhibitors” value in [2] (setting [8]) turned out to be 460.00 min. Besides, the “Half-life, without inhibitors” value in data set [2] (setting [11]) was 76.30 min. For the same compound, in data set [2] (setting [9]), the “Half-life, without inhibitors” value was determined as 76.3 min and the “Intrinsic clearance, without inhibitors” value amounted to 16.7 μL/min/million cells.
On to `CC(C)NCC(O)COc1cccc2ccccc12` (stereo not shown) [Propranolol, reference compound], for which, on CYP2C19, the half-life came to 12 min.
In the case of `O=C(O)Cc1ccccc1Nc1c(Cl)cccc1Cl` [Diclofenac, reference compound], at CYP2C9, the half-life was determined as 1 min and the “intrinsic clearance, CYP isoform 2C9” value is 4731 μL/min/nmol CYP. In addition, in data set [5], the half-life at 5 μM is 34.1 min and the hepatocyte CLint at 5 μM is 57.7 µL/min/1e6 cells.
In the case of `COc1ccc([C@@H]2Sc3ccccc3N(CCN(C)C)C(=O)[C@@H]2OC(C)=O)cc1` [Diltiazem, reference compound], in [5], the half-life at 5 μM was less than 3 min and the hepatocyte CLint at 5 μM was more than 460 µL/min/1e6 cells.
On to `Nc1c2c(nc3ccccc13)CCCC2` [Tacrine, reference compound], for which, on CYP1A2, the half-life is 37 min and the “intrinsic clearance, CYP isoform 1A2” value was found to be 189 μL/min/nmol CYP.
`NCCc1c[nH]c2ccc(O)cc12` [Serotonin, reference compound] displayed a half-life in data set [4] (setting [10]) of 11.1 min. The same compound registered a half-life in data set [4] (human liver mitochondrial fraction, Clorgyline (MAO-A inhibitor) 100 nM) of more than 420.2 min. In [3], the “Intrinsic Clearance” value stood at 151.0 μL/min/mg protein and the half-life amounted to 9.2 min. In data set [5], the half-life at 5 μM was found to be 22.8 min and the hepatocyte CLint at 5 μM came out at 83 µL/min/1e6 cells. In [2], the “% change in half-life, MAO inhibitors vs no inhibitors” value was determined as 73.75% and the “% change in intrinsic clearance, MAO inhibitors vs no inhibitors” value is on record as −282.18%. In data set [2] (setting [6]), the “Intrinsic clearance, with inhibitors” value came to 10.10 μL/min/million cells. The “Intrinsic clearance, with inhibitors” value in [2] (setting [7]) came out at 10.1 μL/min/million cells. Moreover, the “Half-life, without inhibitors” value in data set [2] (setting [11]) is recorded as 33.00 min. In data set [2] (setting [9]), the “Half-life, without inhibitors” value worked out at 33 min and the “Intrinsic clearance, without inhibitors” value is 38.6 μL/min/million cells.
Take `[2H]C([2H])(Cc1c[nH]c2ccccc12)N(C)C` [SPL028vi, α,α,-bis-deuterium-N,N-dimethyltryptamine]: in [1], the “w Half-life” value is on record as 16.6 min and the “w Intrinsic clearance” value turned out to be 114.0 μL/min/million cells. Also, in data set [2], the “% change in half-life, MAO inhibitors vs no inhibitors” value was 20.55% and the “% change in intrinsic clearance, MAO inhibitors vs no inhibitors” value is reported as −26.41%. Moreover, the “Intrinsic clearance, with inhibitors” value in data set [2] (setting [6]) was determined as 10.79 μL/min/million cells. In addition, the “Intrinsic clearance, with inhibitors” value in data set [2] (setting [7]) amounted to 10.79 μL/min/million cells. In addition, in [2] (setting [11]), the “Half-life, without inhibitors” value was determined as 95.04 min. In data set [2] (setting [9]), the “Half-life, without inhibitors” value was 95.04 min and the “Intrinsic clearance, without inhibitors” value came out at 13.64 μL/min/million cells.
